Experimental data from patent US11479579B2, “Therapeutic compounds and methods” (Regents of the University of Minnesota, priority 2018, dated 2022).

Legend:
[1] = Stability in GI tract (gastric and intestinal phase); format: in vitro ADME; conditions: for Stability in the GI tract compared with p-GSH: summary in words of Table 1
Procedure: (§1) Compounds 4 and 9 were tested in for stability in the gastrointestinal tract and plasma.

Stability in plasma = format: in vitro ADME; conditions: for Stability in plasma compared with p-GSH: summary in words of Table 1
Procedure: as §1

[2] = Conversion of prodrugs into p-GSH in liver homogenate; format: in vitro ADME; conditions: liver homogenate with proteinase inhibitors; FIGS. 1 and 2
Procedure: The conversion of the p-GSH prodrugs, compounds 4 & 9 into p-GSH were studied in liver homogenate. Liver and brain homogenate were selected because they not only are considered as metabolic organs for p-GSH but also the target organs of p-GSH. The homogenate was prepared from fresh liver tissue and proteinase inhibitors were added in order to prevent degradation of metabolic enzymes.

glyoxalase-I = molecular target: T1, glyoxalase-I (Homo sapiens, UniProt Q04760); conditions: previous studies (More, Vince 2012); cited from earlier work
T1 sequence (Q04760 2-184 limits assumed): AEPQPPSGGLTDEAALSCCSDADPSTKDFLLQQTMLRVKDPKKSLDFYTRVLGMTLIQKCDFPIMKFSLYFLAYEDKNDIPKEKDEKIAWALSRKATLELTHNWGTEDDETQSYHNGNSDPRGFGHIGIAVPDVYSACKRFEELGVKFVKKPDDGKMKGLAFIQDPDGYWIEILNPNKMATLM

[3] = tested on: amyloid-β induced neurotoxicity; conditions: certain earlier data; cited from earlier work
[4] = tested on: transgenic Alzheimer's mice; conditions: certain earlier data; cited from earlier work
[5] = tested on: acetaminophen (ACP) toxicity; conditions: cited from earlier work

Compound | Stability in GI tract, Gastric Phase [1] [h] | Stability in GI tract, Intestinal Phase [1] | Stability in the GI tract compared with p-GSH [1] | Stability in plasma (Stability in plasma) [h] | Stability in plasma compared with p-GSH (Stability in plasma) | Conversion into parent compound p-GSH [2] | Substrate property for glyoxalase-I (glyoxalase-I) | Effect on amyloid-β induced neurotoxicity [3] | Effect on cognitive decline [4] | Rescue agent against acetaminophen (ACP) toxicity [5]
CC(=O)SC[C@H](NC(=O)NC[C@H](N)C(=O)O)C(=O)NCC(=O)O [Compound 4] | >24 | 5.1 h | more stable than p-GSH in the GI tract | 5.8 | more stable in plasma | can be converted into parent compound p-GSH |  |  |  | 
N[C@@H](CNC(=O)N[C@@H](CS)C(=O)NCC(=O)O)C(=O)O [p-GSH] | >24 | 1.3 h < 4 h |  | 0.0433 |  |  | stable substrate | reduced the amyloid-β induced neurotoxicity | prevented cognitive decline | useful as rescue agent
CCOC(=O)SC[C@H](NC(=O)NC[C@H](N)C(=O)O)C(=O)NCC(=O)O [Compound 9] | >24 | 7.7 h | more stable than p-GSH in the GI tract | 80 | more stable in plasma | can be converted into parent compound p-GSH |  |  |  | 
